Target: T1, GFP-Rab34 (LAP-Rab34) (Homo sapiens, UniProt Q9BZG1)
T1 sequence (Q9BZG1 1-259): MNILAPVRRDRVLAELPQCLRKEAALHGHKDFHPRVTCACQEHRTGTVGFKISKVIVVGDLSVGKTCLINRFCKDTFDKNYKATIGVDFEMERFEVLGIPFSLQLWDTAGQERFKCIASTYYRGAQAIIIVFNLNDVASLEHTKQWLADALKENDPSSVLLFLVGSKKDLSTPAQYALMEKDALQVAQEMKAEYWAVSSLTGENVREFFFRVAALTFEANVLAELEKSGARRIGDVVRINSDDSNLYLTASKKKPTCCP
Assay type: cell-based
Conditions: labelled compound; HEK293T cells; 10 mM MgCl2 in lysis buffer

With `Nc1nc2c(ncn2[C@@H]2O[C@H](COP(=O)(O)OP(=O)(O)O)[C@@H](O)[C@H]2O)c(=O)[nH]1` [GDP] as the compound, how does the “32P metabolic labelling in cells, anti-GFP immunoprecipitation, TLC of bound nuc” value read?
Its value is “wildtype Rab34 was mostly GDP-bound”.

Reference: paper PMC8282722 (Current biology : CB, 2021)
